Source: patent publication US12527837B2, “Peptide for use in the prevention and/or treatment of a disease caused by a virus affecting the respiratory tract” (priority 2020, dated 2026)
Like-named read-outs stand apart in the source and are kept apart here. No end group written: not given here.

What was measured:
[1] = system: standardised antigens from H1N1 virus; assay: Haemagglutination Inhibition Assay (HAI) with standardised antigens of influenza virus subtype H1N1; type: cell-based; details: for activity of lysine-acetylated derivatives against the influenza virus compared with the parent peptides of example 2.1: HAI with standardised antigens
[2] = system: live virus from subtype H3N2 of influenza virus; assay: HAI with live influenza virus subtype H3N2; type: cell-based; details: live virus 4 HAU/25 μl; 1.5% v/v turkey red blood cells; FIG. 4B
[3] = system: live virus from subtype H1N1 of influenza virus; assay: HAI with live influenza virus subtype H1N1; type: cell-based; details: live virus 4 HAU/25 μl; 1.5% v/v turkey red blood cells; FIG. 4A
[4] = system: human coronavirus HcoV-OC43; assay: HAI with heat-inactivated viral lysate of HcoV-OC43; type: cell-based; details: heat-inactivated viral lysate 4 UHA/25 μl; 1.5% v/v turkey RBC; FIG. 5
[5] = system: human coronavirus SARS-CoV-2; assay: HAI with heat-inactivated viral lysate of SARS-CoV-2; type: cell-based; details: heat-inactivated viral lysate 4 UHA/25 μl; 1.5% v/v turkey RBC; FIG. 5
measles virus = assay: HAI with heat-inactivated viral lysate of measles virus; type: cell-based; details: heat-inactivated viral lysate 4 UHA/25 μl; 1.5% v/v turkey RBC; FIG. 5
[6] = MDCK cells, 20 hours, MTS, FIG. 10
[7] = MDCK cells, 20 hours, MTS, highest concentration tested 1 mg/ml

Substance: SSLLEK*GLDG AKKAVGGLGKLGKDAVEDLESVGKGAVHDVKDVLD (SSLLEK(Ac)GLDGAKKAVGGLGKLGKDAVEDLESVGKGAVHDVKDVLD) [SEQ ID No.: 21]
- activity of lysine-acetylated derivatives against the influenza virus compared with the parent peptides of example 2.1 [1]: the same activity
- activity against the H3N2 subtype of live influenza virus (HAI) [2]: had activity

Substance: LEKGLDGAKKAVGGLGKLGKDAVEDLESVGKGAVHDVKDVLD (LEKGLDGAKKAVGGLGKLGKDAVEDLESVGKGAVHDVKDVLD; LEK-42) [SEQ ID No.: 1, dermcidin fragment]
- activity against standardised antigens of H1N1 subtype of influenza virus (inhibiting haemagglutination) ([1]; H1N1 antigens 8 HAU/50 μl, 5% v/v turkey red blood cells, FIG. 2 and FIG. 3): had activity

Substance: SSLLEK*GLDG AKKAVGGLGK LGKDA (SSLLEK(Ac)GLDGAKKAVGGLGKLGKDA) [SEQ ID No.: 28]
- activity of lysine-acetylated derivatives against the influenza virus compared with the parent peptides of example 2.1 [1]: the same activity

Substance: LEK*GLDGAKK AVGGLGKLGKDAVEDLESVGKGAVHDVKDVLD (LEK(Ac)GLDGAKKAVGGLGKLGKDAVEDLESVGKGAVHDVKDVLD) [SEQ ID No.: 19]
- activity of lysine-acetylated derivatives against the influenza virus compared with the parent peptides of example 2.1 [1]: the same activity

Substance: LEK*GLDGAKK AVGGLGKLGKDAVEDLESVGKGAVHDVKDVL (LEK(Ac)GLDGAKKAVGGLGKLGKDAVEDLESVGKGAVHDVKDVL) [SEQ ID No.: 29]
- activity of lysine-acetylated derivatives against the influenza virus compared with the parent peptides of example 2.1 [1]: the same activity

Substance: SSLLEKGLDGAKKAVGGLGKLGKDAVEDLESVGKGAVHDVKDVLD [SEQ ID No.: 3, SSLLEKGLDGAKKAVGGLGKLGKDAVEDLESVGKGAVHDVKDVLD]
- peptides that cause significant toxicity in cells (MDCK cells; [6]): none
- cells in the culture that exhibited toxicity (MDCK cells; [7]): 20%

Substance: SSLLEK*GLDG AKKAVGGLGKLGKDAVEDLESVGKGAVHDVKDVLDSV (SSLLEK(Ac)GLDGAKKAVGGLGKLGKDAVEDLESVGKGAVHDVKDVLDSV) [SEQ ID No.: 22]
- activity against the H1N1 subtype of live influenza virus (HAI) [3]: had activity
- activity against the H3N2 subtype of live influenza virus (HAI) [2]: had activity
- activity against HcoV-OC43 (preventing adhesion of the virus to RBCs) [4]: active
- activity against SARS-CoV-2 (preventing adhesion of the virus to RBCs) [5]: active
- activity against measles virus (preventing adhesion of the virus to RBCs) (measles virus): active

Substance: RRKKAAVALLPAVLLALLAP [EB, RRKKAAVALL PAVLLALLAP, reference compound]
- cytotoxicity observed in the culture (MDCK cells): total cell destruction
- cytotoxicity of the cells in the culture (MDCK cells): 50%

Substance: SSLLEK*GLDG AKKAVGGLGKLGKDAVEDLESVGKGAVHDVKDVLDSVL (SSLLEK(Ac)GLDGAKKAVGGLGKLGKDAVEDLESVGKGAVHDVKDVLDSVL) [SEQ ID No.: 23]
- activity of lysine-acetylated derivatives against the influenza virus compared with the parent peptides of example 2.1 [1]: the same activity
- activity against the H1N1 subtype of live influenza virus (HAI) [3]: had activity
- activity against the H3N2 subtype of live influenza virus (HAI) [2]: had activity
- activity against HcoV-OC43 (preventing adhesion of the virus to RBCs) [4]: active
- activity against SARS-CoV-2 (preventing adhesion of the virus to RBCs) [5]: active
- activity against measles virus (preventing adhesion of the virus to RBCs) (measles virus): active

Substance: SSLLEKGLDGAKKAVGGLGKLGKDAVEDLESVGKGAVHDVKDVLDSVL [SEQ ID No.: 5, SSLLEKGLDGAKKAVGGLGKLGKDAVEDLESVGKGAVHDVKDVLDSVL]
- cells in the culture that exhibited toxicity (MDCK cells): 20%
- peptides that cause significant toxicity in cells (MDCK cells): none

Substance: LEKGLDGAKKAVGGLGKLGKDAVEDLESVGKGAVHDVKDVLDSVL [SEQ ID No.: 2, LEKGLDGAKKAVGGLGKLGKDAVEDLESVGKGAVHDVKDVLDSVL]
- peptides that cause significant toxicity in cells (MDCK cells; [6]): none
- cells in the culture that exhibited toxicity (MDCK cells; [7]): 20%

Substance: LEK*GLDGAKK AVGGLGKLGKDAVEDLESVGKGAVHDVKDVLDSVL (LEK(Ac)GLDGAKKAVGGLGKLGKDAVEDLESVGKGAVHDVKDVLDSVL) [SEQ ID No.: 20]
- activity of lysine-acetylated derivatives against the influenza virus compared with the parent peptides of example 2.1 [1]: the same activity
- activity against the H1N1 subtype of live influenza virus (HAI) [3]: had activity
- activity against the H3N2 subtype of live influenza virus (HAI) [2]: had activity
